Ends that are not written are not given here.

Experimental findings from PMC2851732, “Peptide Inhibitors of Dengue-Virus Entry Target a Late-Stage Fusion Intermediate” (PLoS Pathogens, 2010) are described below.

The test deals with T1, DV2 sE(1–395) postfusion trimer (Dengue virus type 2, UniProt P12823).
T1 construct: The sE component (residues 1–395) of the ectodomain is in ribbon representation; purchased Hawai'i Biotech
Description: Fluorescence polarization binding of FITC-tagged stem peptides to postfusion sE trimer. The arrangement: species or system dengue virus serotype 2. (In general: Polarisation of emitted light reports the rotation of a fluorescent probe.)

For orientation: IC50 means the point on the concentration scale where inhibition reaches its midpoint. In turn, AWDFGSLGGVFTSIGKALHQVF [DV2^419-440] showed a half-inhibitory concentration (IC50) of 250 nM. Sequence AILGDTAWDFGSLGGVFTSIGKA [DV2^413-435] yielded an IC50 of 2000 nM.

In turn, “AILGDTAWDFGSLGGVFTSIGKALHQVF [DV2^413-440]” showed a 50% inhibitory concentration (IC50) of 250 nM.
